# Legend:
# Type in all cases: biochemical
# JAK1 = target: T1, JAK1 (Homo sapiens, UniProt P23458); assay: Z'-LYTE kinase assay JAK1
# T1 construct: 5 μl of catalytic domain recombinant Kinase enzyme+Tyr peptide substrate (Invitrogen, CA); purchased Invitrogen
# Outline: (§1)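 Z′-LYTE FRET, Tyr6 peptide, recombinant catalytic domain + ATP, 1 h RT, 1% DMSO final, duplicates; protease development 1 h RT; fluorescence read.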
# JAK2 = target: T2, JAK2 (Homo sapiens, UniProt O60674); assay: Z'-LYTE kinase assay JAK2
# T2 construct: 5 μl of catalytic domain recombinant Kinase enzyme+Tyr peptide substrate (Invitrogen, CA); purchased Invitrogen
# T2 sequence (O60674 849-1124 limits assumed): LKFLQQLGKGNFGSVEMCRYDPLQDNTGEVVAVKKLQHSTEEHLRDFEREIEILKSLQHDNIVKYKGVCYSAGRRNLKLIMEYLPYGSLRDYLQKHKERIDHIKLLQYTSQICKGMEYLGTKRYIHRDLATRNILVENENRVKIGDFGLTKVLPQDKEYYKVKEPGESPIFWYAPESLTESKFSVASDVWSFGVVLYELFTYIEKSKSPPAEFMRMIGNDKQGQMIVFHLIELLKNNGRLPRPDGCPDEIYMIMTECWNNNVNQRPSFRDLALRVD
# Outline: as §1
# JAK3 = target: T3, JAK3 (Homo sapiens, UniProt P52333); assay: Z'-LYTE kinase assay JAK3
# T3 construct: 5 μl of catalytic domain recombinant Kinase enzyme+Tyr peptide substrate (Invitrogen, CA); purchased Invitrogen
# T3 sequence (P52333 822-1111 limits assumed): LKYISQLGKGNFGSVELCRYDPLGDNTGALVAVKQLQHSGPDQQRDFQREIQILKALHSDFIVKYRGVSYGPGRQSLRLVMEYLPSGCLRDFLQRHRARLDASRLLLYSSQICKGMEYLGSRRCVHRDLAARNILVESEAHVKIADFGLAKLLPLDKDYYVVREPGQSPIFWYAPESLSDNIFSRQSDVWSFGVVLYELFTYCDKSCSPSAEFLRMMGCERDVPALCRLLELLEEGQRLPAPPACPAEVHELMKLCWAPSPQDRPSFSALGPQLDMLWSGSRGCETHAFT
# Outline: as §1
# T1 sequence (P23458 875-1153 limits assumed): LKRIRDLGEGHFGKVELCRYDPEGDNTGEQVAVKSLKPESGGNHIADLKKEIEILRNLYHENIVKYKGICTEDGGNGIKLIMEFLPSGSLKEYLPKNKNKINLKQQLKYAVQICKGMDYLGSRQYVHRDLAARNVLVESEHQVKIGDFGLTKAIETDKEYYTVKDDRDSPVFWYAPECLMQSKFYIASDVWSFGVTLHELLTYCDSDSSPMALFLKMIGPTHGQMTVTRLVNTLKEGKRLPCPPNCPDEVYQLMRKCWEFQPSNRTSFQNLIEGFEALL
Compound,IC50 (JAK1),IC50 (JAK2),IC50 (JAK3)
"CC(=O)N1CCN(c2cccc(Nc3cc(NC4(c5ccccc5)CC4)c(C(N)=O)cn3)c2)CC1 [Example 371, 6-(3-(4-acetylpiperazin-1-yl)phenylamino)-4-(1-phenylcyclopropylamino)nicotinamide]",> 1000 nM,100 to 1000 nM,10 to 100 nM
"NC(=O)c1cnc(Nc2ccc(OCCN3CCCC3)cc2)cc1NC1(c2ccccc2)CC1 [Example 132, 4-(1-phenylcyclopropylamino)-6-(4-(2-(pyrrolidin-1-yl)ethoxy)phenylamino)nicotinamide]",> 1000 nM,100 to 1000 nM,10 to 100 nM
"CN(C)C(=O)c1cccc(Nc2cc(NCC3CCCC3)c(C(N)=O)cn2)c1 [Example 95, 4-(cyclopentylmethylamino)-6-(3-(dimethylcarbamoyl)phenylamino)nicotinamide]",100 to 1000 nM,100 to 1000 nM,10 to 100 nM
"COC(=O)N(C)c1ccc(Nc2cc(NCc3cccc4cc[nH]c34)c(C(N)=O)cn2)cc1 [Example 482, methyl 4-(4-((1H-indol-7-yl)methylamino)-5-carbamoylpyridin-2-ylamino)phenyl(methyl)carbamate]",> 1000 nM,> 1000 nM,10 to 100 nM
"CN1CCC(C(=O)Nc2cc(Nc3cc(NC4(c5ccccc5)CC4)c(C(N)=O)cn3)ccc2Cl)CC1 [Example 136, 6-(4-chloro-3-(1-methylpiperidine-4-carboxamido)phenylamino)-4-(1-phenylcyclopropylamino)nicotinamide]",> 1000 nM,> 1000 nM,10 to 100 nM
"COc1ccc(Nc2cc(NCc3cccc4ccn(C)c34)c(C(N)=O)cn2)cc1 [Example 317, 6-(4-methoxyphenylamino)-4-((1-methyl-1H-indol-7-yl)methylamino)nicotinamide]",> 1000 nM,> 1000 nM,100 to 1000 nM
"CNC(=O)Cc1ccc(Nc2cc(NCc3ccccc3)c(C(N)=O)cn2)cc1 [Example 340, 4-(benzylamino)-6-(4-(2-(methylamino)-2-oxoethyl)phenylamino)nicotinamide]",100 to 1000 nM,100 to 1000 nM,10 to 100 nM
"COC(=O)N1CC(c2ccc(Nc3cc(NCc4ccccc4)c(C(N)=O)cn3)cc2)C1 [Example 327, methyl 3-(4-(4-(benzylamino)-5-carbamoylpyridin-2-ylamino)phenyl)azetidine-1-carboxylate]",> 1000 nM,100 to 1000 nM,10 to 100 nM
"CS(=O)(=O)Cc1ccc(Nc2cc(NCc3cccc4ccsc34)c(C(N)=O)cn2)cc1 [Example 346, 4-(benzo[b]thiophen-7-ylmethylamino)-6-(4-(methylsulfonylmethyl)phenylamino)nicotinamide]",10 to 100 nM,10 to 100 nM,< 1 nM
"NC(=O)c1cnc(Nc2ccc(-n3cccn3)cc2)cc1NCc1ccccc1 [Example 277, 6-(4-(1H-pyrazol-1-yl)phenylamino)-4-(benzylamino)nicotinamide]",> 1000 nM,> 1000 nM,10 to 100 nM
"NC(=O)c1cnc(Nc2cccc(C3CCNCC3)c2)cc1NCc1ccccc1F [Example 120, 4-(2-fluorobenzylamino)-6-(3-(piperidin-4-yl)phenylamino)nicotinamide]",100 to 1000 nM,10 to 100 nM,1 to 10 nM
"CN(C)C(=O)C1CCN(c2ccc(Nc3cc(NCc4cccc(-c5ccncc5)c4)c(C(N)=O)cn3)cc2)CC1 [Example 419, 6-(4-(4-(dimethylcarbamoyl)piperidin-1-yl)phenylamino)-4-(3-(pyridine-4-yl)benzylamino)nicotinamide]",> 1000 nM,100 to 1000 nM,1 to 10 nM
"COc1ccc(Nc2cc(NCc3cccc4cc[nH]c34)c(C(N)=O)cn2)cc1 [Example 282, 4-((1H-indol-7-yl)methylamino)-6-(4-methoxyphenylamino)nicotinamide]",> 1000 nM,> 1000 nM,10 to 100 nM
"NC(=O)c1cnc(Nc2ccc(N3CCOCC3)cc2)cc1NC1(c2ccccc2)CC1 [Example 125, 6-(4-morpholinophenylamino)-4-(1-phenylcyclopropylamino)-nicotinamide]",> 1000 nM,100 to 1000 nM,10 to 100 nM
"CN(C)C(=O)c1ccc(Nc2cc(NCC3CCCC3)c(C(N)=O)cn2)cc1 [Example 96, 4-(cyclopentylmethylamino)-6-(4-(dimethylcarbamoyl)phenylamino)nicotinamide]",100 to 1000 nM,100 to 1000 nM,10 to 100 nM
"CC(C)c1ccc(Nc2cc(NCc3ccccc3F)c(C(N)=O)cn2)cc1 [Example 158, 4-(2-fluorobenzylamino)-6-(4-isopropylphenylamino)nicotinamide]",> 1000 nM,> 1000 nM,10 to 100 nM
"COC(=O)N1CCC[C@H](CNc2cc(Nc3ccc(OC)cc3)ncc2C(N)=O)C1 [Example 56, (R)-methyl 3-((5-carbamoyl-2-(4-methoxyphenylamino)pyridin-4-ylamino)methyl)piperidine-1-carboxylate]",> 1000 nM,> 1000 nM,100 to 1000 nM

Compound,IC50 (JAK1),IC50 (JAK2),IC50 (JAK3)
"Cc1cc(Nc2cc(NCc3cncnc3)c(C(N)=O)cn2)ccc1C(=O)N(C)C [Example 287, 6-(4-(dimethylcarbamoyl)-3-methylphenylamino)-4-(pyrimidin-5-ylmethylamino)nicotinamide]",> 1000 nM,> 1000 nM,100 to 1000 nM
"CN(C)CC(C)(C)CNc1cc(Nc2ccc(C3CCOCC3)cc2)ncc1C(N)=O [Example 171, 4-(3-(dimethylamino)-2,2-dimethylpropylamino)-6-(4-(tetrahydro-2H-pyran-4-yl)phenylamino)nicotinamide]",> 1000 nM,> 1000 nM,100 to 1000 nM
"COc1ccc(Nc2cc(NC[C@H]3CCCN(C(=O)N(C)C)C3)c(C(N)=O)cn2)cc1 [Example 291, (R)-4-((1-(dimethylcarbamoyl)piperidin-3-yl)methylamino)-6-(4-methoxyphenylamino)nicotinamide]",> 1000 nM,> 1000 nM,100 to 1000 nM
"CCC(=O)N1CCC(c2ccc(Nc3cc(NCc4ncccn4)c(C(N)=O)cn3)cc2)CC1 [Example 180, 6-(4-(1-propionylpiperidin-4-yl)phenylamino)-4-(pyrimidin-2-ylmethylamino)nicotinamide]",> 1000 nM,> 1000 nM,100 to 1000 nM
COC(=O)N(C)c1ccc(Nc2cc(NCc3cncc(F)c3)c(C(N)=O)cn2)cc1 [Example 479],100 to 1000 nM,100 to 1000 nM,10 to 100 nM
"NC(=O)c1cnc(Nc2cccc(C3CCOCC3)c2)cc1NCc1cc(F)cc(F)c1 [Example 206, 4-(3,5-difluorobenzylamino)-6-(3-(tetrahydro-2H-pyran-4-yl)phenylamino)nicotinamide]",100 to 1000 nM,10 to 100 nM,1 to 10 nM
"CC(C)[C@H](C)Nc1cc(Nc2ccc(C3CCOCC3)cc2)ncc1C(N)=O [Example 186, (S)-4-(3-methylbutan-2-ylamino)-6-(4-(tetrahydro-2H-pyran-4-yl)phenylamino)nicotinamide]",100 to 1000 nM,100 to 1000 nM,10 to 100 nM
"Cc1cc(Nc2cc(NCc3cccc4[nH]ccc34)c(C(N)=O)cn2)ccc1C(=O)N1CCOCC1 [Example 462, 4-((1H-indol-4-yl)methylamino)-6-(3-methyl-4-(morpholine-4-carbonyl)phenylamino)nicotinamide]",1 to 10 nM,1 to 10 nM,< 1 nM
"Cn1ccnc1CNc1cc(Nc2ccc(C3CCOCC3)cc2)ncc1C(N)=O [Example 183, 4-((1-methyl-1H-imidazol-2-yl)methylamino)-6-(4-(tetrahydro-2H-pyran-4-yl)phenylamino)nicotinamide]",100 to 1000 nM,100 to 1000 nM,10 to 100 nM
"CCC(=O)N1CCC(c2ccc(Nc3cc(NC4CCCC4)c(C(N)=O)cn3)cc2)CC1 [Example 147, 4-(cyclopentylamino)-6-(4-(1-propionylpiperidin-4-yl)phenylamino)nicotinamide]",100 to 1000 nM,100 to 1000 nM,10 to 100 nM
"CC(=O)N(C)c1ccc(Nc2cc(NCc3cccc4cc[nH]c34)c(C(N)=O)cn2)cc1 [Example 470, 4-((1H-indol-7-yl)methylamino)-6-(4-(N-methylacetamido)phenylamino)nicotinamide]",> 1000 nM,100 to 1000 nM,10 to 100 nM
"CC(=O)N1CCC[C@H](CNc2cc(Nc3ccc(NS(=O)(=O)N(C)C)cc3)ncc2C(N)=O)C1 [Example 269, (R)-4-((1-acetylpiperidin-3-yl)methylamino)-6-(4-(N,N-dimethylsulfamoylamino)phenylamino)nicotinamide]",100 to 1000 nM,100 to 1000 nM,10 to 100 nM
"NC(=O)c1cnc(Nc2ccc(C3CN(C(=O)N4CCCC4)C3)cc2)cc1NCc1ccccc1 [Example 338, 4-(benzylamino)-6-(4-(1-(pyrrolidine-1-carbonyl)azetidin-3-yl)phenylamino)nicotinamide]",100 to 1000 nM,100 to 1000 nM,1 to 10 nM
"NC(=O)c1cnc(Nc2ccc(C3CNC3)cc2)cc1NCc1cccc(F)c1F [Example 212, 6-(4-(azetidin-3-yl)phenylamino)-4-(2,3-difluorobenzylamino)nicotinamide]",100 to 1000 nM,10 to 100 nM,1 to 10 nM
N#Cc1cccc(Nc2cc(NCc3ccccc3)c(C(N)=O)cn2)c1 [Example 391],> 1000 nM,> 1000 nM,10 to 100 nM
"NC(=O)c1cnc(Nc2cccc(C3CCOCC3)c2)cc1NCc1cc(F)ccc1F [Example 207, 4-(2,5-difluorobenzylamino)-6-(3-(tetrahydro-2H-pyran-4-yl)phenylamino)nicotinamide]",100 to 1000 nM,10 to 100 nM,1 to 10 nM

# — patent US20150353495A1 (PORTOLA PHARMACEUTICALS, INC., priority 2010, published 2015)
